Experimental findings from patent US11285156B2, “Substituted piperazines as KRAS G12C inhibitors” (Amgen Inc., priority 2018, dated 2022) are described below.

In general, IC50 refers to the midpoint of a concentration-inhibition curve.

For assay [1], the target named is GDP-bound KRAS protein (aa 1-169), containing both G12C and C118A amino acid substitutions (Homo sapiens (Human), UniProt P01116, C118A/G12C). Description: Coupled nucleotide exchange assay (SOS-mediated nucleotide exchange, AlphaScreen). The assay is classed as biochemical. As to conditions: read-out: Coupled exchange IC50 (5 min; μM); 5 min compound pre-incubation. In general terms: Alpha assays give light when donor and acceptor beads are brought close together.
Chain of GDP-bound KRAS protein (aa 1-169), containing both G12C and C118A amino acid substitutions (P01116 other isoform, or with tags, fused parts or gaps G12C/C118A): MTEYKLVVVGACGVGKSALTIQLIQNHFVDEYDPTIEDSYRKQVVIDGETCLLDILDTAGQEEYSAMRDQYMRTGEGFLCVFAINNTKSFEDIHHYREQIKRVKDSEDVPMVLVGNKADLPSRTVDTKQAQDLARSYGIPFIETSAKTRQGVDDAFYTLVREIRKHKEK
Protocol: Coupled Nucleotide Exchange Assay:
Following compound pre-incubation, purified SOS protein (aa 564-1049) and GTP (Roche 10106399001) were added to the assay wells and incubated for an additional 30 min (for 5 min compound pre-incubation) or 1 hour (for 2 hour compound pre-incubation). […] The assay plates were then read on a PerkinElmer EnVision Multilabel Reader, using AlphaScreen® technology, and data were analyzed using a 4-parameter logistic model to calculate IC50 values.

In assay [2] the test system is Phosphorylation of ERK1/2 in MIA PaCa-2 cells. The experiment in a line: Phospho-ERK1/2 MSD assay in MIA PaCa-2 cells. The assay is classed as cell-based. The note with it: Homo sapiens, MIA PaCa-2, 2 h, read-out: p-ERK IC50 (2 h, MiaPaCa-2; μM), 2 h compound treatment, MIA PaCa-2 cells, EGF stimulated. Put shortly: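 Phospho-ERK1/2 measured by MSD electrochemiluminescence kit in RIPA lysates of MIA PaCa-2 cells. Cells were treated with compound titrations for 2 or 4 h at 37 °C, 5% CO2, followed by a 10 min pulse of 10 ng/mL EGF.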

Assay [3] has as its system Phosphorylation of ERK1/2 in A549 cells. The experiment in a line: Phospho-ERK1/2 MSD assay in A549 cells. It is filed as cell-based. The note with it: Homo sapiens, A549, 2 h, read-out: p-ERK IC50 (2 h, A549; μM), 2 h compound treatment, A549 cells, EGF stimulated. The procedure, abridged:
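MSD electrochemiluminescent read-out of phospho-ERK1/2 in RIPA lysates. Cells in RPMI 1640 with 10% FBS received titrated compound for 2 or 4 h, then 10 ng/mL EGF for 10 min before ice-cold PBS wash and lysis.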

Turning to `C=CC(=O)N1C[C@H](C)N(c2nc(=O)n(-c3c(C)ccnc3C(C)C)c3nc(-c4cccnc4N)c(Cl)cc23)C[C@H]1C` (atropisomer, axis not shown; (M)) [Example 92-13, (M)-7-(2-Amino-3-pyridyl)-6-chloro-4-[(2S,5R)-2,5-dimethyl-4-prop-2-enoyl-piperazin-1-yl]-1-(2-isopropyl-4-methyl-3-pyridyl)pyrido [2,3-d]pyrimidin-2-one], the 50% inhibitory concentration (IC50) is 0.201 µM in assay [1], 0.251 µM in assay [2] and > 7.5 µM in assay [3].

Take `C=CC(=O)N1C[C@H](C)N(c2nc(=O)n(-c3c(C)ccnc3C(C)C)c3nc(-c4ccccc4OC(F)F)c(Cl)cc23)C[C@H]1C` (atropisomer, axis not shown; (M)) [Example 92-14, (M)-6-Chloro-7-[2-(difluoromethoxy)phenyl]-4-[(2S,5R)-2,5-dimethyl-4-prop-2-enoyl-piperazin-1-yl]-1-(2-isopropyl-4-methyl-3-pyridyl)pyrido [2,3-d]pyrimidin-2-one]: the IC50 is 0.121 µM in assay [1], 0.074 µM in assay [2] and > 7.5 µM in assay [3].

Turning to `C=CC(=O)N1C[C@H](C)N(c2nc(=O)n(-c3c(C)ccnc3C(C)C)c3nc(-c4c(C)ccc5cn[nH]c45)c(Cl)cc23)C[C@H]1C` (atropisomer, axis not shown; (M)) [Example 92-15, (M)-6-Chloro-4-[(2S,5R)-2,5-dimethyl-4-prop-2-enoyl-piperazin-1-yl]-1-(2-isopropyl-4-methyl-3-pyridyl)-7-(6-methyl-1H-indazol-7-yl)pyrido[2,3-d]pyrimidin-2-one], the IC50 in assay [1] is 0.094 µM; in assay [2], 0.125 µM; in assay [3], > 7.5 µM.

On to `C=CC(=O)N1C[C@H](C)N(c2nc(=O)n(-c3c(C)ccnc3C(C)C)c3nc(-c4ccccc4C(F)F)c(Cl)cc23)C[C@H]1C` (atropisomer, axis not shown; (M)) [Example 92-16, (M)-6-Chloro-7-[2-(difluoromethyl)phenyl]-4-[(2S,5R)-2,5-dimethyl-4-prop-2-enoyl-piperazin-1-yl]-1-(2-isopropyl-4-methyl-3-pyridyl)pyrido [2,3-d]pyrimidin-2-one], for which the IC50 was 0.043 µM in assay [1], 0.015 µM in assay [2] and > 7.5 µM in assay [3].

For the compound `C=CC(=O)N1C[C@H](C)N(c2nc(=O)n(-c3c(C)ccnc3C(C)C)c3nc(-c4cccc(F)c4N)c(Cl)cc23)C[C@H]1C` (atropisomer, axis not shown; (M)) [Example 92-17, (M)-7-(2-Amino-3-fluoro-phenyl)-6-chloro-4-[(2S,5R)-2,5-dimethyl-4-prop-2-enoyl-piperazin-1-yl]-1-(2-isopropyl-4-methyl-3-pyridyl)pyrido[2,3-d]pyrimidin-2-one], the IC50 in assay [1] was 0.042 µM; in assay [2], 0.018 µM; in assay [3], > 7.5 µM.

Take `C=CC(=O)N1C[C@H](C)N(c2nc(=O)n(-c3c(C)ccnc3C(C)C)c3nc(-c4ccccc4NC(C)=O)c(Cl)cc23)C[C@H]1C` (atropisomer, axis not shown; (M)) [Example 92-18, (M)-N-[2-[6-Chloro-4-[(2S,5R)-2,5-dimethyl-4-prop-2-enoyl-piperazin-1-yl]-1-(2-isopropyl-4-methyl-3-pyridyl)-2-oxo-pyrido[2,3-d]pyrimidin-7-yl]phenyl] acetamide]: the IC50 was 0.085 µM in assay [1], 0.17 µM in assay [2] and > 7.5 µM in assay [3].

`C=CC(=O)N1C[C@H](C)N(c2nc(=O)n(-c3c(C)ccnc3C(C)C)c3nc(-c4ccccc4N(C)C)c(Cl)cc23)C[C@H]1C` (atropisomer, axis not shown; (M)) [Example 92-19, (M)-6-Chloro-7-[2-(dimethylamino)phenyl]-4-[(2S,5R)-2,5-dimethyl-4-prop-2-enoyl-piperazin-1-yl]-1-(2-isopropyl-4-methyl-3-pyridyl)pyrido [2,3-d]pyrimidin-2-one]: the IC50 in assay [1] is 0.044 µM; in assay [2], 0.027 µM; in assay [3], > 7.5 µM.

Consider `C=CC(=O)N1C[C@H](C)N(c2nc(=O)n(-c3c(C)ccnc3C(C)C)c3nc(-c4ccccc4C(N)=O)c(Cl)cc23)C[C@H]1C` (atropisomer, axis not shown; (M)) [Example 92-21, (M)-2-[6-Chloro-4-[(2S,5R)-2,5-dimethyl-4-prop-2-enoyl-piperazin-1-yl]-1-(2-isopropyl-4-methyl-3-pyridyl)-2-oxo-pyrido[2,3-d]pyrimidin-7-yl]benzamide], for which the IC50 in assay [1] was 0.051 µM; in assay [2], 0.637 µM; in assay [3], > 7.5 µM.

On to `C=CC(=O)N1C[C@H](C)N(c2nc(=O)n(-c3c(C)ccnc3C(C)C)c3nc(-c4ccccc4C(F)(F)F)c(Cl)cc23)C[C@H]1C` (atropisomer, axis not shown; (M)) [Example 92-23, (M)-6-Chloro-4-[(2S,5R)-2,5-dimethyl-4-prop-2-enoyl-piperazin-1-yl]-1-(2-isopropyl-4-methyl-3-pyridyl)-7-[2-(trifluoromethyl)phenyl]pyrido [2,3-d]pyrimidin-2-one], for which the 50% inhibitory concentration (IC50) was 0.038 µM in assay [1], 0.036 µM in assay [2] and > 7.5 µM in assay [3].

Regarding `C=CC(=O)N1C[C@H](C)N(c2nc(=O)n(-c3c(C)ccnc3C(C)C)c3nc(-c4c(F)cccc4C(N)=O)c(Cl)cc23)C[C@H]1C` (atropisomer, axis not shown; (M)) [Example 92-24, (M)-2-[6-Chloro-4-[(2S,5R)-2,5-dimethyl-4-prop-2-enoyl-piperazin-1-yl]-1-(2-isopropyl-4-methyl-3-pyridyl)-2-oxo-pyrido[2,3-d]pyrimidin-7-yl]-3-fluoro-benzamide], the IC50 was 0.019 µM in assay [1], 0.116 µM in assay [2] and > 7.5 µM in assay [3].

Regarding `C=CC(=O)N1C[C@H](C)N(c2nc(=O)n(-c3c(C)ccnc3C(C)C)c3nc(-c4ccccc4NC)c(Cl)cc23)C[C@H]1C` (atropisomer, axis not shown; (M)) [Example 92-25, (M)-6-Chloro-4-[(2S,5R)-2,5-dimethyl-4-prop-2-enoyl-piperazin-1-yl]-1-(2-isopropyl-4-methyl-3-pyridyl)-7-[2-(methylamino)phenyl]pyrido[2,3-d]pyrimidin-2-one], the IC50 in assay [1] was 0.04 µM; in assay [2], 0.016 µM; in assay [3], > 7.5 µM.

Consider `C=CC(=O)N1C[C@H](C)N(c2nc(=O)n(-c3c(C)ccnc3C(C)C)c3nc(-c4cc(F)cc(F)c4N)c(Cl)cc23)C[C@H]1C` (atropisomer, axis not shown; (M)) [Example 92-26, (M)-7-(2-Amino-3,5-difluoro-phenyl)-6-chloro-4-[(2S,5R)-2,5-dimethyl-4-prop-2-enoyl-piperazin-1-yl]-1-(2-isopropyl-4-methyl-3-pyridyl)pyrido [2,3-d]pyrimidin-2-one], for which the 50% inhibitory concentration (IC50) in assay [1] was 0.101 µM; in assay [2], 0.023 µM; in assay [3], > 7.5 µM.

`C=CC(=O)N1C[C@H](C)N(c2nc(=O)n(-c3c(C)ccnc3C(C)C)c3nc(-c4ccccc4C(=O)NC)c(Cl)cc23)C[C@H]1C` (atropisomer, axis not shown; (M)) [Example 92-27, (M)-2-[6-Chloro-4-[(2S,5R)-2,5-dimethyl-4-prop-2-enoyl-piperazin-1-yl]-1-(2-isopropyl-4-methyl-3-pyridyl)-2-oxo-pyrido[2,3-d]pyrimidin-7-yl]-N-methyl-benzamide]: the IC50 in assay [1] was 0.149 µM; in assay [2], 0.735 µM; in assay [3], > 7.5 µM.

Turning to `C=CC(=O)N1C[C@H](C)N(c2nc(=O)n(-c3c(C)ccnc3C(C)C)c3nc(-c4ccccc4C(=O)N(C)C)c(Cl)cc23)C[C@H]1C` (atropisomer, axis not shown; (M)) [Example 92-28, (M)-2-[6-Chloro-4-[(2S,5R)-2,5-dimethyl-4-prop-2-enoyl-piperazin-1-yl]-1-(2-isopropyl-4-methyl-3-pyridyl)-2-oxo-pyrido[2,3-d]pyrimidin-7-yl]-N,N-dimethyl-benzamide], the 50% inhibitory concentration (IC50) is 0.123 µM in assay [1], 0.11 µM in assay [2] and > 7.5 µM in assay [3].

Take `C=CC(=O)N1C[C@H](C)N(c2nc(=O)n(-c3c(C)ccnc3C(C)C)c3nc(-c4ccccc4C(=O)O)c(Cl)cc23)C[C@H]1C` (atropisomer, axis not shown; (M)) [Example 92-29, (M)-2-[6-Chloro-4-[(2S,5R)-2,5-dimethyl-4-prop-2-enoyl-piperazin-1-yl]-1-(2-isopropyl-4-methyl-3-pyridyl)-2-oxo-pyrido[2,3-d]pyrimidin-7-yl]benzoic acid]: the IC50 in assay [1] was 0.139 µM; in assay [2] it was 10 µM; in assay [3] it was > 7.5 µM.

Take `C=CC(=O)N1C[C@H](C)N(c2nc(=O)n(-c3c(C)ccnc3C(C)C)c3nc(-c4cc(F)c(F)cc4N)c(Cl)cc23)C[C@H]1C` (atropisomer, axis not shown; (M)) [Example 92-31, (M)-7-(2-Amino-4,5-difluoro-phenyl)-6-chloro-4-[(2S,5R)-2,5-dimethyl-4-prop-2-enoyl-piperazin-1-yl]-1-(2-isopropyl-4-methyl-3-pyridyl)pyrido [2,3-d]pyrimidin-2-one]: the IC50 in assay [1] is 0.014 µM; in assay [2], 0.022 µM; in assay [3] it was > 7.5 µM.
